Assay results from publication PMC6496756, “Zerumbone, a cyclic sesquiterpene, exerts antimitotic activity in HeLa cells through tubulin binding and exhibits synergistic activity with vinblastine and paclitaxel” (Cell Proliferation, 2018).

Biological target: T1, tubulin (alpha/beta heterodimer)
T1 construct: purified goat brain tubulin; with alpha-tubulin/beta-tubulin heterodimer
Test: intrinsic tryptophan fluorescence quenching; also competition with colchicine and inhibition of tubulin polymerization
Type: binding, Capra hircus

C/C1=C\CC(C)(C)/C=C/C(=O)/C(C)=C/CC1 [zerumbone, (2E,6E,10E)‐2,6,9,9‐tetramethylcycloundeca‐2,6,10‐trien‐1‐one]
Kd: 4 µM
